Measurements reported in patent publication US11780868B1, “Homoleptic metal coordination complexes as antifungal agents” (King Abdulaziz University, priority 2023, dated 2023).
≈ marks a conversion by molar mass, not a printed value. One block for each compound: values may come before it.

How the values were obtained:
C. albicans 4085 = test: Broth microdilution MIC/MFC (CLSI M27-A4); format: cell-based, Candida albicans; conditions: Candida albicans; C. albicans 4085 (Flz resistant), 37° C., 24 h; read-out: Median MIC
Procedure: (§1) In this work, nine strains of C. albicans procured from Charlotte Maxeke Johannesburg Academic Hospital under ethical clearance number M000402 were employed (Table 1). All the C. albicans strains were preserved at −70° C. deep freezer in 50% (v/v) anhydrous glycerol (Sigma-Aldrich St. Louis, MO, U.S.A.). For conducting experiments, cultures were revived in Sabouraud Dextrose broth (SDB; Merck, Germany) at 37° C. and 120 rpm for 24 h. Additionally, the RPMI 1640 medium and MOPS (Sigma-Aldrich, USA) were prepared as described by the Clinical and Laboratory Standards Institute (CLSI).
(§2) The activity of C1 against Candida species (n=9) was first estimated in terms of minimum inhibitory concentration (MIC) and minimum fungicidal concentration (MFC). […] Briefly, stock solutions of Flz (used as reference; Sigma-Aldrich St. Louis, MO, U.S.A.) and the synthesized compound was prepared in 1% dimethyl sulfoxide (DMSO; Sigma-Aldrich St. Louis, MO, U.S.A.) and the test concentrations were formulated in RPMI 1640-MOPS medium. A two-fold dilution of the compound (1250-0.61 μg/mL) and reference drug (128-0.062 μg/mL) was prepared in 96 well plates which were then seeded with C. albicans inoculum (1×10^6 cells/mL) and incubated at 37° C. for 24 h. In every set of experiments, sterility control, 1% DMSO as negative control and growth control were included. Growth was quantified by reading the optical density at 620 nm in a UV-1800 SHIMADZU spectrophotometer (Shimadzu Corporation, Japan). The MIC was determined as the lowest concentration that inhibited the growth of Candida strains. To determine MFC, each well without visible growth was subcultured onto the SDA plates for 24 hours at 37° C. The lowest concentration killing ≥99.9% of Candida was taken as the MFC value of the test compound.

C. albicans 4175 = test: Broth microdilution MIC/MFC (CLSI M27-A4); format: cell-based, Candida albicans; conditions: Candida albicans; C. albicans 4175 (Flz sensitive), 37° C., 24 h; read-out: Median MIC
Procedure: as §1, §2

C. albicans 4554 = test: Broth microdilution MIC/MFC (CLSI M27-A4); format: cell-based, Candida albicans; conditions: Candida albicans; C. albicans 4554 (Flz sensitive), 37° C., 24 h; read-out: Median MIC
Procedure: as §1, §2

C. albicans 4324 = test: Broth microdilution MIC/MFC (CLSI M27-A4); format: cell-based, Candida albicans; conditions: Candida albicans; C. albicans 4324 (Flz resistant), 37° C., 24 h; read-out: Median MIC
Procedure: as §1, §2

C. albicans 4106 = test: Broth microdilution MIC/MFC (CLSI M27-A4); format: cell-based, Candida albicans; conditions: Candida albicans; C. albicans 4106 (Flz resistant), 37° C., 24 h; read-out: Median MIC
Procedure: as §1, §2

C. albicans SC5314 = test: Broth microdilution MIC/MFC (CLSI M27-A4); format: cell-based, Candida albicans; conditions: Candida albicans; C. albicans SC5314 (control), 37° C., 24 h; read-out: Median MIC
Procedure: as §1, §2

C. albicans 4180 = test: Broth microdilution MIC/MFC (CLSI M27-A4); format: cell-based, Candida albicans; conditions: Candida albicans; C. albicans 4180 (Flz sensitive), 37° C., 24 h; read-out: Median MIC
Procedure: as §1, §2

C. albicans 4251 [1] = test: Broth microdilution MIC/MFC (CLSI M27-A4); format: cell-based, Candida albicans; conditions: Candida albicans; C. albicans 4251 (Flz sensitive), 37° C., 24 h; read-out: Median MIC
Procedure: as §1, §2

C. albicans 5112 [2] = test: Broth microdilution MIC/MFC (CLSI M27-A4); format: cell-based, Candida albicans; conditions: Candida albicans; C. albicans 5112 (Flz resistant), 37° C., 24 h; read-out: Median MIC
Procedure: as §1, §2

C. albicans 4251 [3] = test: Cell count and viability assay (Muse cell analyser); format: cell-based, Candida albicans; conditions: C. albicans 4251, hydrogen peroxide 10 mM 1:1 with inoculum, 24 h; untreated 90.9%
Procedure: (§3) Quantification of Live/Dead C. albicans cells in response to C1 was carried out. The actual count of viable and dead cells of C. albicans by treatment of C1 was monitored by Cell Count and Viability assay kit. An inoculum (1×10^6 cells/mL) of both Flz sensitive (C. albicans 4251) and resistant (C. albicans 5112) C. albicans strains was prepared followed by treatment with various concentrations of C1 (0.5×MIC, 1×MIC and MFC) for 24 h at 37° C. and 150 rpm. For the negative control, only inoculum treated with 1% DMSO was used and for the positive control, hydrogen peroxide (10 mM) was used in a 1:1 ratio with the inoculum. Following incubation, the cells were then washed in PBS and centrifuged at 4000 rpm for 5 minutes at 4° C. and the final pellet was resuspended in PBS. The Cell Count and Viability assay samples were prepared by mixing 190 μL of Luminex Cell Viability Dilution Buffer and 10 μL of the sample in a 1.5 mL Eppendorf tube and incubated in the dark for 5 min at room temperature. All samples were analysed by a Guava® Muse® Cell Analyser (Luminex A DiaSorin Company, USA).

C. albicans 5112 [4] = test: as above; format: cell-based, Candida albicans; conditions: C. albicans 5112, hydrogen peroxide 10 mM 1:1 with inoculum, 24 h; untreated 86.8%
Procedure: as §3

C. albicans 4251 [5] = test: Cell cycle analysis (Muse cell analyser); format: cell-based, Candida albicans; conditions: 10 mM H2O2 positive control; stated for C. albicans without naming a strain
Procedure: The effect of C1 on the cell cycle of C. albicans 4251 and C. albicans 5112 was determined using Cell Cycle kit MCH100106 in a Guava® Muse® Cell Analyser according to the manufacturer's instructions. The cells of the C. albicans (1×10^6 cells/mL) were exposed to C1 for 4 h at different concentrations (0.5×MIC and 1×MIC). Each sample was rinsed with fresh PBS after exposure, and the pellet was fixed in 1 mL of 70% ice-cold ethanol (Sigma Aldrich Co., USA). The Cell Cycle assay was prepared by mixing the 100 μL of Luminex® Cell Cycle dye and 100 μL of the prewashed fixed cells and incubated in the dark for 30 minutes at room temperature. All samples were analysed by a Guava® Muse® Cell Analyser (Luminex® A DiaSorin Company, USA). During the experiment, both the negative (without treatment) and positive control (10 mM H2O2 treated) were used.

C. albicans 4251 [6] = test: JC-10 mitochondrial membrane potential assay; format: cell-based, Candida albicans; conditions: C. albicans 4251, H2O2 treated positive control; negative control 2.65
Procedure: (§4) To examine the effect of C1 on the induction of cellular apoptosis in C. albicans cells, crucial apoptotic markers were observed. For this purpose, C. albicans 4251 and C. albicans 5112 cells were subjected to protoplast preparation by utilizing a method described previously by Srivastava et al. in 2020 through their research study. […] Later on, the cells were washed and incubated for 10 min at room temperature in protoplast buffer-1 (1M sorbitol, 0.05M tris base, 0.01M MgCl2, 0.03M DTT, pH 7.4). The cells were spun at 1500 rpm for 5 min and the pellet was resuspended in protoplast buffer-2 (1M sorbitol, 0.05M tris base, 0.01M MgCl2, 0.001M DTT, pH 7.4) supplemented with […] enzyme (1 μg/mL) and incubated for 1 h at room temperature. Afterwards, the cell suspension was again centrifuged, and the pellet was resuspended and incubated for 20 min at room temperature in protoplast buffer-3 (1M sorbitol, 0.05M tris base, 0.01M MgCl2, pH 7.4). A final washing (1500 rpm for 5 min) was given to the cells and the pellet consisting of C. albicans protoplasts was resuspended in fresh PBS and was stored at 4° C. until further use. Measurement of mitochondrial membrane potential in C. albicans was carried out and the potential of C1 in destabilising mitochondrial membrane potential (Δψm) in C. albicans was established by JC-10 mitochondrial membrane potential assay kit (Abeam, Cambridge, UK). The experiment was performed according to manufacturer instructions. 90 μL of prepared protoplast of C. albicans 4251 and C. albicans 5112 was added to a 96-well microplate (with black walls and clear bottom), followed by the addition of 50 μL/well of JC-10 dye-loading solution. The microplate was incubated for 1 hour at 37° C. in the dark. This was followed by the addition of 50 μL/well of assay buffer B. The microplate was then immediately centrifuged at 800 rpm for 2 minutes. The fluorescence intensity was monitored at an Ex/Em=490/530 nm (present in apoptotic cells, monomeric form and green fluorescence; represented as X) and 540/590 nm (present in live cells, dye aggregates and red fluorescence; represented as Y) using a SpectraMax® ID3 Multimode Plate Reader (Molecular Devices, LLC., USA). The ratio between the aggregate and monomeric forms was measured to find the change in mitochondrial membrane potential. The mitochondrial membrane depolarization is indicated by decreasing ratio values.

C. albicans 5112 [7] = test: JC-10 mitochondrial membrane potential assay; format: cell-based, Candida albicans; conditions: C. albicans 5112, H2O2 treated positive control; negative control 2.92
Procedure: as §4

- MIC (C. albicans 4085): 16 µg/mL (≈ 52.2 µM)
- MIC (C. albicans 4175): 0.25 µg/mL (≈ 0.816 µM)
- MIC (C. albicans 4554): 0.25 µg/mL (≈ 0.816 µM)
- MIC (C. albicans 4324): 32 µg/mL (≈ 104 µM)
- MIC (C. albicans 4106): 32 µg/mL (≈ 104 µM)
- MIC (C. albicans SC5314): 0.25 µg/mL (≈ 0.816 µM)
- MIC (C. albicans 4180): 0.25 µg/mL (≈ 0.816 µM)
- MIC (C. albicans 4251 [1]): 0.5 µg/mL (≈ 1.63 µM)
- MIC (C. albicans 5112 [2]): 64 µg/mL (≈ 209 µM)
Structure (SMILES): OC(Cn1cncn1)(Cn1cncn1)c1ccc(F)cc1F [Flz, fluconazole, reference compound]

- melting point: 119 °C
Structure (SMILES): Oc1ccc(Br)cc1/C=N/c1ccc2c(c1)OCCO2 [L, (E)-4-bromo-2-{[(2,3-dihydrobenzo[b][1,4]dioxin-6-yl)imino]methyl}phenol]

Structure (SMILES): OO [Complex H2O2, hydrogen peroxide, reference compound]
- live cells (C. albicans 4251 [3]): 19.9%
- live cells (C. albicans 5112 [4]): 26.1%
- impact on the cell cycle (C. albicans 4251 [5]): not much impact
- average fluorescence ratio JC-10 aggregates/JC-10 monomers (C. albicans 4251 [6]): 2.5
- average fluorescence ratio JC-10 aggregates/JC-10 monomers (C. albicans 5112 [7]): 2.75
